Experimental findings from ChEMBL document CHEMBL5321230, “Design, synthesis, and biological evaluation of novel HIV-1 protease inhibitors containing pyrrolidine-derived P2 ligands to combat drug-resistant variant” (Eur J Med Chem, 2023) are described below.

The target of data set [1] is Human immunodeficiency virus type 1 protease (Human immunodeficiency virus 1, UniProt Q72874). In words: Inhibition of HIV-1 protease expressed in Escherichia coli using Arg-Glu(EDANS)-Ser-Gln-Asn-Tyr-Pro-Ile-Val-Gln-Lys(DABCYL)-Arg peptide as substrate preincubated for 20 to 30 mins followed by substrate addition and measured for 10 mins by FRET assay.
Data set [2] relates to Human immunodeficiency virus 1. In words: Antiviral activity against wild type VSV-G pseudotyped HIV-1 NL4-3 infected in human HEK293T cells assessed as inhibition of viral replication by measuring luciferase activity incubated for 48 hrs further infected with human SupT1 cells for 48 hrs by luciferase based analysis. The class given is functional, organism-based. To be noted: Human immunodeficiency virus 1, NL4-3, HEK-293T.

The test system of data set [3] is Human immunodeficiency virus 1. The experiment in a line: Antiviral activity against drug-resistant VSV-G pseudotyped HIV-1 NL4-3 harboring protease V32I/L33F/I54M/I84V mutant infected in human HEK293T cells assessed as inhibition of viral replication by measuring luciferase activity incubated for 48 hrs further infected with human SupT1 cells for 48 hrs by luciferase based analysis. In kind it is functional, organism-based. The note with it: Human immunodeficiency virus 1, NL4-3, HEK-293T.

Data set [4] in a line: Cytotoxicity against human HEK293T cells assessed as reduction in cell viability incubated for 24 hrs by CCK-8 assay. The class given is toxicity, cell-based, HEK-293T. A general note: Formazan colour is commonly taken as a measure of viable cells.

What is called IC50 is the concentration needed to halve the response being measured. A low value points to higher potency. As usually defined, the EC50 is the midpoint of the concentration-response curve. The CC50 is the concentration at which the toxic effect on the cells reaches its halfway point. In the case of `COc1ccc(S(=O)(=O)N(CC(C)C)C[C@@H](O)[C@H](Cc2ccccc2)NC(=O)[C@@H]2CCNC2)cc1`, in data set [1], half-maximal inhibition (IC50) required 0.41 µM. The EC50 in data set [2] came to 1350 nM; in data set [3], 2.51 µM. Besides, the CC50 at 24 h in data set [4] was > 200 µM.

With `CC(C)CN(C[C@@H](O)[C@H](Cc1ccccc1)NC(=O)O[C@H]1CCOC1)S(=O)(=O)c1ccc(N)cc1`, the EC50 in data set [2] turned out to be 260 nM; in data set [3] it was 3.93 µM. For the same molecule, the CC50 at 24 h in data set [4] is > 200 µM.

`COc1ccc(S(=O)(=O)N(CC(C)C)C[C@@H](O)[C@H](Cc2ccccc2)NC(=O)O[C@H]2CCNC2)cn1` came in with an IC50 in data set [1] of 4.04 µM. This counts as single-digit micromolar.

For the molecule `CC(C)CN(C[C@@H](O)[C@H](Cc1ccccc1)NC(=O)O[C@@H]1CCNC1)S(=O)(=O)c1ccc(NO)cc1`, the IC50 in data set [1] is 27.4 µM. Against the preceding molecule, the IC50 is about 6.8-fold higher.

Molecule `CC(C)CN(C[C@@H](O)[C@H](Cc1ccccc1)NC(=O)[C@@H]1CCNC1)S(=O)(=O)c1ccc(NO)cc1` came in with an IC50 in data set [1] of 1.21 µM.

The molecule `CC(C)CN(C[C@@H](O)[C@H](Cc1ccccc1)NC(=O)O[C@@H]1CCNC1)S(=O)(=O)c1ccc(O)cc1` gave an IC50 in data set [1] of 0.82 µM. Besides, the EC50 in data set [2] was 750 nM; in data set [3], 9.26 µM. Moreover, the CC50 at 24 h in data set [4] is > 200 µM.

In the case of `CC(C)CN(C[C@@H](O)[C@H](Cc1ccccc1)NC(=O)N[C@H]1CCNC1)S(=O)(=O)c1ccc(O)cc1`, the midpoint of inhibition in data set [1], the IC50, lay at 1.95 µM.

Regarding `CC(C)CN(C[C@@H](O)[C@H](Cc1ccccc1)NC(=O)O[C@H]1CCNC1)S(=O)(=O)c1ccc(NO)cc1`, the IC50 in data set [1] was determined as 5.1 µM. Against the preceding molecule, the IC50 is about 2.6-fold higher.

In data set [1], `COc1ccc(S(=O)(=O)N(CC(C)C)C[C@@H](O)[C@H](Cc2ccccc2)NC(=O)[C@@H]2CCCN2)cc1` showed an IC50 of 2.19 µM.

As to `CC(C)CN(C[C@@H](O)[C@H](Cc1ccccc1)NC(=O)O[C@H]1CCNC1)S(=O)(=O)c1ccc(O)cc1`, the IC50 in data set [1] was 0.72 µM. For the same molecule, the EC50 was found to be 410 nM in data set [2] and 8.14 µM in data set [3]. Besides, the CC50 at 24 h in data set [4] was > 200 µM.

`COc1ccc(S(=O)(=O)N(CC(C)C)C[C@@H](O)[C@H](Cc2ccccc2)NC(=O)N[C@@H]2CCNC2)cc1` returned an IC50 in data set [1] of 20.7 µM.

The molecule `CC(C)CN(C[C@@H](O)[C@H](Cc1ccccc1)NC(=O)C[C@@H]1CCNC1)S(=O)(=O)c1ccc(O)cc1` displayed an IC50 in data set [1] of 5.01 µM.

In turn, `COc1ccc(S(=O)(=O)N(CC(C)C)C[C@@H](O)[C@H](Cc2ccccc2)NC(=O)[C@H]2CCCN2)cc1` returned an IC50 in data set [1] of 39.8 µM.

In turn, `COc1ccc(S(=O)(=O)N(CC(C)C)C[C@@H](O)[C@H](Cc2ccccc2)NC(=O)O[C@@H]2CCNC2)cn1` yielded an IC50 in data set [1] of 23 µM. Against the preceding molecule, the IC50 is about 1.7-fold lower.

In data set [1], `COc1ccc(S(=O)(=O)N(CC(C)C)C[C@@H](O)[C@H](Cc2ccccc2)NC(=O)[C@H]2CCNC2)cc1` yielded an IC50 of 0.6 µM.

In data set [1], `COc1ccc(S(=O)(=O)N(CC(C)C)C[C@@H](O)[C@H](Cc2ccccc2)NC(=O)[C@H]2CCNC2)cn1` displayed an IC50 of 4.74 µM. This IC50 is about 7.9-fold higher than that of the molecule before.

Take `COc1ccc(S(=O)(=O)N(CC(C)C)C[C@@H](O)[C@H](Cc2ccccc2)NC(=O)C[C@H]2CCNC2)cc1`: it took 2.77 µM to reach half-maximal inhibition in data set [1] (IC50).

Molecule `CC(C)CN(C[C@@H](O)[C@H](Cc1ccccc1)NC(=O)N[C@@H]1CCNC1)S(=O)(=O)c1ccc(O)cc1` displayed an IC50 in data set [1] of 5.97 µM.

Turning to `COc1ccc(S(=O)(=O)N(CC(C)C)C[C@@H](O)[C@H](Cc2ccccc2)NC(=O)C[C@@H]2CCNC2)cc1`, in data set [1], half-maximal inhibition (IC50) was put at 20.5 µM.

In data set [1], `CC(C)CN(C[C@@H](O)[C@H](Cc1ccccc1)NC(=O)[C@@H]1CCNC1)S(=O)(=O)c1ccc(N)cc1` displayed an IC50 of 6.16 µM.

`CC(C)CN(C[C@@H](O)[C@H](Cc1ccccc1)NC(=O)[C@H]1CCNC1)S(=O)(=O)c1ccc(NO)cc1` showed an IC50 in data set [1] of 10.9 µM.

In data set [1], `CC(C)CN(C[C@@H](O)[C@H](Cc1ccccc1)NC(=O)[C@@H]1CCCN1)S(=O)(=O)c1ccc(O)cc1` displayed an IC50 of 0.97 µM. Compared with the last molecule, the IC50 is about 11-fold lower.

On to `CC(C)CN(C[C@@H](O)[C@H](Cc1ccccc1)NC(=O)O[C@H]1CCNC1)S(=O)(=O)c1ccc(N)cc1`, for which the IC50 in data set [1] came out at 5.06 µM.

On to `COc1ccc(S(=O)(=O)N(CC(C)C)C[C@@H](O)[C@H](Cc2ccccc2)NC(=O)O[C@H]2CCNC2)cc1`, for which the IC50 in data set [1] turned out to be 1.1 µM.

The molecule `COc1ccc(S(=O)(=O)N(CC(C)C)C[C@@H](O)[C@H](Cc2ccccc2)NC(=O)O[C@@H]2CCNC2)cc1` displayed an IC50 in data set [1] of 2.58 µM.

In data set [1], `CC(C)CN(C[C@@H](O)[C@H](Cc1ccccc1)NC(=O)O[C@@H]1CCNC1)S(=O)(=O)c1ccc(N)cc1` had an IC50 of 25.4 µM. This IC50 lies about 9.8-fold higher than the previous one.

For the molecule `CC(C)CN(C[C@@H](O)[C@H](Cc1ccccc1)NC(=O)[C@H]1CCCN1)S(=O)(=O)c1ccc(O)cc1`, in data set [1], the IC50 stood at 96.9 µM.

With `COc1ccc(S(=O)(=O)N(CC(C)C)C[C@@H](O)[C@H](Cc2ccccc2)NC(=O)N[C@H]2CCNC2)cc1`, the IC50 in data set [1] amounted to 4.01 µM.

`CC(C)CN(C[C@@H](O)[C@H](Cc1ccccc1)NC(=O)C[C@H]1CCNC1)S(=O)(=O)c1ccc(O)cc1` yielded an IC50 in data set [1] of 1.43 µM.

Regarding `CC(C)CN(C[C@@H](O)[C@H](Cc1ccccc1)NC(=O)[C@H]1CCNC1)S(=O)(=O)c1ccc(O)cc1`, the IC50 in data set [1] was found to be 0.51 µM. Also, the EC50 in data set [2] was 1570 nM; in data set [3], 13.3 µM. The CC50 at 24 h in data set [4] was > 200 µM.

Molecule `CC(C)CN(C[C@@H](O)[C@H](Cc1ccccc1)NC(=O)[C@H]1CCNC1)S(=O)(=O)c1ccc(N)cc1` had an IC50 in data set [1] of 12.5 µM. In other words, the double-digit micromolar range.

`COc1ccc(S(=O)(=O)N(CC(C)C)C[C@@H](O)[C@H](Cc2ccccc2)NC(=O)[C@@H]2CCNC2)cn1` gave an IC50 in data set [1] of 0.83 µM.

As to `CC(C)CN(C[C@@H](O)[C@H](Cc1ccccc1)NC(=O)[C@@H]1CCNC1)S(=O)(=O)c1ccc(O)cc1`, the IC50 in data set [1] came out at 0.32 µM. Further, the EC50 came to 290 nM in data set [2] and 1.9 µM in data set [3]. In data set [4], the CC50 at 24 h was > 200 µM.
